# Target: His-tagged CRBN-DDB1 complex (Homo sapiens (Human), UniProt Q96SW2)
# Test: Time-resolved fluorescence resonance energy transfer (TR-FRET) assay, displacement of Cy5-labeled thalidomide
# Assay type: binding
# Settings: read-out: CRBN HTRF IC50
# Experimental: Equal volumes of His-tagged CRBN-DDB1 complex (56 nM) was mixed with Eu-cryptate labeled Anti-6HIS-monoclonal antibody (50× dilution from the commercial stock solution, Vender: Cisbio, Cat. #61HI2KLA) in a final buffer containing 20 mM HEPES pH 7.0, 150 mM NaCl, 0.005% Tween-20. […] The mixture were incubated at room temperature for 1 hour. FRET signals were measured on an EnVision plate reader (Perkin Elmer) by exciting at 340 nm and recording emission at both 615 nm as no FRET control and 665 nm as the FRET signals with a 60 microsecond delay. FRET efficiency was calculated as the ratio of fluorescent signals at […]. Quantitative loss of FRET efficiency as a function of compound concentrations was fitted by a four-parameter Logistic Function using GraphPad Prism 7.0 and the IC50 values were reported for each compound.
# The compound numbers correspond to the compound numbers in Table 1.
# Chain of His-tagged CRBN-DDB1 complex (Q96SW2 whole entry): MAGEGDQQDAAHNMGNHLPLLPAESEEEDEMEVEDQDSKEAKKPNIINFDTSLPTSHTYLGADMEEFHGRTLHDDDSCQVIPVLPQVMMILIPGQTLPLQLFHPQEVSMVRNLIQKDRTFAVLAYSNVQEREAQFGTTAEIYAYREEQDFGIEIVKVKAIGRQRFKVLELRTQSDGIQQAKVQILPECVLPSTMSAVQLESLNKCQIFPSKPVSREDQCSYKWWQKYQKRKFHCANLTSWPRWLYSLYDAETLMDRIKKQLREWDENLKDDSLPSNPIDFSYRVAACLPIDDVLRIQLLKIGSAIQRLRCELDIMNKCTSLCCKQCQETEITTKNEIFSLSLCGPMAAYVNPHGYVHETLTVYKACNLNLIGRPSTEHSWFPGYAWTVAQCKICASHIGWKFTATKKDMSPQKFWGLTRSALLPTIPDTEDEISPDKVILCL
# Chain of His-tagged CRBN-DDB1 complex (Q16531 whole entry partner): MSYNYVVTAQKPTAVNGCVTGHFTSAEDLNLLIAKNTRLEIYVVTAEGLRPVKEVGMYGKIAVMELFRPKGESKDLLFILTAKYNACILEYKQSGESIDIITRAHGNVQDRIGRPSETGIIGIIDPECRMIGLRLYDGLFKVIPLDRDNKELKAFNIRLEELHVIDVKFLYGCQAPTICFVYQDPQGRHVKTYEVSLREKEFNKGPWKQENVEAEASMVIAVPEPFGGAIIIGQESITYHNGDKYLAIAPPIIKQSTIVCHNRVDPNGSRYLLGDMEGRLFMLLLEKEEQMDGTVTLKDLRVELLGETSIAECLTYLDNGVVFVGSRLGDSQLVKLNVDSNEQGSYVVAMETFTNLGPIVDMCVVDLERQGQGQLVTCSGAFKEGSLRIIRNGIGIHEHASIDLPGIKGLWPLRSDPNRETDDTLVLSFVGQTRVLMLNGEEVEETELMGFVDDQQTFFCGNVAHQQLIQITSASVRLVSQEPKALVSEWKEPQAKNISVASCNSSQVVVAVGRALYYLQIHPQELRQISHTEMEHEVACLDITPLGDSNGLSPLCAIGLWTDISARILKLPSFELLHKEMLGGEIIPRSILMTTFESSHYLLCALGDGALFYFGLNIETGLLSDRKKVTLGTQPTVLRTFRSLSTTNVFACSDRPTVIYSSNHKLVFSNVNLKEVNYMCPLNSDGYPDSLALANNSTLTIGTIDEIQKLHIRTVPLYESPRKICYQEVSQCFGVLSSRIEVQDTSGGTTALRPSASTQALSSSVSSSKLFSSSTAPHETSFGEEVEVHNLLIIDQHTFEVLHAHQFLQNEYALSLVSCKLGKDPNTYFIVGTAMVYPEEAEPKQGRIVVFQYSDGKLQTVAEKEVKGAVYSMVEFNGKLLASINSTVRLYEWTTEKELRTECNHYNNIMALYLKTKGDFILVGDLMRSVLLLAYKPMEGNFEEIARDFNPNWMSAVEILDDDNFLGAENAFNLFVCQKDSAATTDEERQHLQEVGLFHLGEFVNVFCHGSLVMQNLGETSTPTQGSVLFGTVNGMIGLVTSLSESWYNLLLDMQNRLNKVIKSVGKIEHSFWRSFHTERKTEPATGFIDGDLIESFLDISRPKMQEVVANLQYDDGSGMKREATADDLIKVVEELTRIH
row,Compound,IC50 [µM]
1,CC(C)(C)OC(=O)NCCOCCOCC#Cc1ccc2c3ccccc3n(C3CCC(=O)NC3=O)c2n1 (stereo not shown) [I-74],10 to 30
2,O=C1CCC(n2ccn3c4ccccc4nc23)C(=O)N1 (stereo not shown) [I-94],30 to 100
3,CC(C)(C)OC(=O)NCCOCCOCCCc1ccc2c3ccccc3n(C3CCC(=O)NC3=O)c2n1 (stereo not shown) [I-73],10 to 30
4,"O=C1CCC(n2c3ccncc3c3cccnc32)C(=O)N1 (stereo not shown) [I-56, 3-(9H-pyrrolo[2,3-b:4,5-c′]dipyridin-9-yl)piperidine-2,6-dione]",10 to 30
5,"CC(C)(C)OC(=O)N1CCc2c(c3cccnc3n2C2CCC(=O)NC2=O)C1 (stereo not shown) [I-40, tert-butyl 9-(2,6-dioxopiperidin-3-yl)-7,8-dihydro-5H-pyrrolo[2,3-b:4,5-c′]dipyridine-6(9H)-carboxylate]",10 to 30
6,"O=C1CCC(n2c3ccccc3c3cc(CCCOCCOCCO)cnc32)C(=O)N1 (stereo not shown) [I-54, 3-(3-(3-(2-(2-hydroxyethoxy)ethoxy)propyl)-9H-pyrido[2,3-b]indol-9-yl)piperidine-2,6-dione]",10 to 30
7,O=C1CCC(n2c3ccccc3c3c(C#CCOCCOCCOCc4ccccc4)ccnc32)C(=O)N1 (stereo not shown) [I-49],< 10
8,"CC(C)(C)OC(=O)NCCOCCNC(=O)NCc1ccc2c(c1)c1cccnc1n2C1CCC(=O)NC1=O (stereo not shown) [I-37, tert-butyl (2-(2-(3-((9-(2,6-dioxopiperidin-3-yl)-9H-pyrido[2,3-b]indol-6-yl)methyl)ureido)ethoxy)ethyl)carbamate]",10 to 30
9,"CC(C)(C)OC(=O)NCCOCCOCCNc1ccc2c(c1)c1cccnc1n2C1CCC(=O)NC1=O (stereo not shown) [I-35, tert-butyl (2-(2-(2-((9-(2,6-dioxopiperidin-3-yl)-9H-pyrido[2,3-b]indol-6-yl)amino)ethoxy)ethoxy)ethyl)carbamate]",< 10
10,CC(C)(C)OC(=O)NCCOCCOCC#Cc1cccc2c1c1cccnc1n2C1CCC(=O)NC1=O (stereo not shown) [I-61],< 10
11,CC(C)(C)OC(=O)NCCOCCOCCCc1ccc2c(c1)c1cccnc1n2C1CCC(=O)NC1=O (stereo not shown) [I-62],< 10
12,"CC(C)(C)OC(=O)NCCOCCOCC(=O)NCc1ccc2c(c1)c1cccnc1n2C1CCC(=O)NC1=O (stereo not shown) [I-36, tert-butyl (2-(2-(2-(((9-(2,6-dioxopiperidin-3-yl)-9H-pyrido[2,3-b]indol-6-yl)methyl)amino)-2-oxoethoxy)ethoxy)ethyl)carbamate]",< 10
13,"O=C1CCC(n2c3c(c4cccnc42)CN(C(=O)CCCCCCCCO)CC3)C(=O)N1 (stereo not shown) [I-68, 3-(6-(9-hydroxynonanoyl)-5,6,7,8-tetrahydro-9H-pyrrolo[2,3-b:4,5-c′]dipyridin-9-yl)piperidine-2,6-dione]",30 to 100
14,CC(C)(C)OC(=O)NCCOCCOCCCc1ccnc2c1c1ccccc1n2C1CCC(=O)NC1=O (stereo not shown) [I-57],< 10
15,"O=C1CCC(n2c3cnccc3c3cccnc32)C(=O)N1 (stereo not shown) [I-69, 3-(9H-pyrrolo[2,3-b:5,4-c′]dipyridin-9-yl)piperidine-2,6-dione]",> 100
16,"CC(C)(C)OC(=O)NC1CCN(CCc2ccc3c(c2)c2cccnc2n3C2CCC(=O)NC2=O)CC1 (stereo not shown) [I-71, tert-butyl (1-(2-(9-(2,6-dioxopiperidin-3-yl)-9H-pyrido[2,3-b]indol-6-yl)ethyl)piperidin-4-yl)carbamate]",< 10
17,O=C1CCC(n2c3ccccc3c3c(CCCOCCOCCO)ccnc32)C(=O)N1 (stereo not shown) [I-48],< 10
18,"O=C1CCC(n2c3cccc(Br)c3c3ccsc32)C(=O)N1 (stereo not shown) [I-103, 3-(4-bromo-8H-thieno[2,3-b]indol-8-yl)piperidine-2,6-dione]",< 10
19,"CCOC(=O)Nc1ccc2c(c1)c1cccnc1n2C1CCC(=O)NC1=O (stereo not shown) [I-29, ethyl (9-(2,6-dioxopiperidin-3-yl)-9H-pyrido[2,3-b]indol-6-yl)carbamate]",10 to 30
20,CC(C)(C)OC(=O)NCCOCCOCCCc1ccc2c3cccnc3n(C3CCC(=O)NC3=O)c2c1 (stereo not shown) [I-58],10 to 30
21,"CC(C)(C)OC(=O)NCCOCCOC(=O)NCc1ccc2c(c1)c1cccnc1n2C1CCC(=O)NC1=O (stereo not shown) [I-38, 2-(2-((tert-butoxycarbonyl)amino)ethoxy)ethyl ((9-(2,6-dioxopiperidin-3-yl)-9H-pyrido[2,3-b]indol-6-yl)methyl)carbamate]",< 10
22,"O=C1CCC(n2c3ncccc3c3cccnc32)C(=O)N1 (stereo not shown) [I-3, 3-(9H-pyrrolo[2,3-b:5,4-b′]dipyridin-9-yl)piperidine-2,6-dione]",30 to 100

# Results, then the compound that gave them:
row,IC50 [µM],Compound
1,< 10,"CNc1ccc2c3ccccc3n(C3CCC(=O)NC3=O)c2n1 (stereo not shown) [I-79, 3-(2-(methylamino)-9H-pyrido[2,3-b]indol-9-yl)piperidine-2,6-dione]"
2,10 to 30,"O=C1CCC(n2c3ccccc3c3ccccc32)C(=O)N1 (stereo not shown) [I-1, 3-(9H-Carbazol-9-yl)piperidine-2,6-dione]"
3,< 10,O=C1CCC(n2c3cccc(Br)c3c3cccnc32)C(=O)N1 (stereo not shown) [I-30]
4,< 10,"CNc1ccc2c(c1)c1cccnc1n2C1CCC(=O)NC1=O (stereo not shown) [I-27, 3-(6-(methylamino)-9H-pyrido[2,3-b]indol-9-yl)piperidine-2,6-dione]"
5,< 10,"O=C1CCC(n2c3ccccc3c3ccc(O)nc32)C(=O)N1 (stereo not shown) [I-83, 3-(2-hydroxy-9H-pyrido[2,3-b]indol-9-yl)piperidine-2,6-dione]"
6,< 10,"O=C1CCC(n2c3ccccc3c3cccnc32)C(=O)N1 (stereo not shown) [I-2, 3-(9H-pyrido[2,3-b]indol-9-yl)piperidine-2,6-dione]"
7,30 to 100,COc1nccc2c3ccccc3n(C3CCC(=O)NC3=O)c12 (stereo not shown) [I-65]
8,< 10,"O=C1CCC(n2c3ccc(Br)cc3c3cccnc32)C(=O)N1 (stereo not shown) [I-26, 3-(6-Bromo-9H-pyrido[2,3-b]indol-9-yl)piperidine-2,6-dione]"
9,< 10,"Cc1ccnc2c1c1ccccc1n2C1CCC(=O)NC1=O (stereo not shown) [I-77, 3-(4-methyl-9H-pyrido[2,3-b]indol-9-yl)piperidine-2,6-dione]"
10,< 10,O=C1CCC(n2c3ccccc3c3ccsc32)C(=O)N1 (stereo not shown) [I-72]
11,10 to 30,"CN(C)c1ccc2c3ccccc3n(C3CCC(=O)NC3=O)c2n1 (stereo not shown) [I-80, 3-(2-(dimethylamino)-9H-pyrido[2,3-b]indol-9-yl)piperidine-2,6-dione]"
12,10 to 30,"CC(=O)Nc1ccc2c3ccccc3n(C3CCC(=O)NC3=O)c2n1 (stereo not shown) [I-90, N-(9-(2,6-dioxopiperidin-3-yl)-9H-pyrido[2,3-b]indol-2-yl)acetamide]"
13,< 10,"O=C1CCC(n2c3ccc(Br)cc3c3ccc(F)nc32)C(=O)N1 (stereo not shown) [I-92, 3-(6-bromo-2-fluoro-9H-pyrido[2,3-b]indol-9-yl)piperidine-2,6-dione]"
14,< 10,O=C1CCC(n2c3ccccc3c3ccc(F)nc32)C(=O)N1 (stereo not shown) [I-84]
15,< 10,O=C1CCC(n2c3ccccc3c3c(Br)ccnc32)C(=O)N1 (stereo not shown) [I-31]
16,10 to 30,O=C1CCC(n2c3ccccc3c3ccnc(O)c32)C(=O)N1 (stereo not shown) [I-105]
17,10 to 30,O=C1CCC(n2c3ccccc3c3scnc32)C(=O)N1 (stereo not shown) [I-66]
18,< 10,O=C1CCC(n2c3cc(F)ccc3c3cccnc32)C(=O)N1 (stereo not shown) [I-101]
19,< 10,O=C1CCC(n2c3cccc(F)c3c3cccnc32)C(=O)N1 (stereo not shown) [I-100]
20,< 10,"CN(C)c1ccc2c(c1)c1cccnc1n2C1CCC(=O)NC1=O (stereo not shown) [I-28, 3-(6-(Dimethylamino)-9H-pyrido[2,3-b]indol-9-yl)piperidine-2,6-dione]"
21,< 10,"Cc1ccc2c3ccccc3n(C3CCC(=O)NC3=O)c2n1 (stereo not shown) [I-86, 3-(2-methyl-9H-pyrido[2,3-b]indol-9-yl)piperidine-2,6-dione]"
